Columns and labels:
CD8+ T cells = test: In vitro priming of CD8+ T cells with pMHC/anti-CD28 coated beads, multimer staining readout; type: cell-based, human; settings: HLA-A*24 healthy donors, three stimulations, A*2402 multimer+ CD8+
Source text: In order to perform in vitro stimulations by artificial antigen presenting cells (aAPC) loaded with peptide-MHC complex (pMHC) and anti-CD28 antibody, we first isolated CD8 T cells from fresh HLA-A*24 leukapheresis products of healthy donors obtained from the Blood Bank Tuebingen.
CD8 T cells were either directly enriched from the leukapheresis product or PBMCs (peripheral blood mononuclear cells) were isolated first by using standard gradient separation medium (PAA, Cölbe, Germany). Isolated CD8 lymphocytes or PBMCs were incubated until use in T-cell medium (TCM) consisting of RPMI-Glutamax (Invitrogen, Karlsruhe, Germany) supplemented with 10% heat inactivated human AB serum (PAN-Biotech, Aidenbach, Germany), 100 U/ml Penicillin/100 μg/ml Streptomycin (Cambrex, Cologne, Germany), 1 mM sodium pyruvate (CC Pro, Oberdorla, Germany), 20 μg/ml Gentamycin (Cambrex). […] Isolation of CD8+ lymphocytes was performed by positive selection using CD8 MicroBeads (Miltenyi Biotec, Bergisch-Gladbach, Germany).
800.000 beads/200 μl were coated in 96-well plates in the presence of 600 ng biotin anti-CD28 plus 200 ng relevant biotin-pMHC (high density beads). Stimulations were initiated in 96-well plates by co-incubating 1×10^6 CD8+ T cells with 2×10^5 washed coated beads in 200 μl TCM supplemented with 5 ng/ml IL-12 (PromoCell) for 3-4 days at 37° C. Half of the medium was then exchanged by fresh TCM supplemented with 80 U/ml IL-2 and incubating was continued for 3-4 days at 37° C. This stimulation cycle was performed for a total of three times. […] For analysis, a BD LSRII SORP cytometer equipped with appropriate lasers and filters was used. Peptide specific cells were calculated as percentage of total CD8+ cells. Evaluation of multimeric analysis was done using the FlowJo software (Tree Star, Oregon, USA). In vitro priming of specific multimer+ CD8+ lymphocytes was detected by appropriate gating and by comparing to negative control stimulations.

[1] = tested on: HLA-DR broad antigens (HLA-DR1 to DR7); test: ProImmune REVEAL MHC:peptide in vitro binding assay; parameters: species or system human; settings: HLA-DR1, 3, 4 and 11; result in words
Experimental: The ProImmune REVEAL™ technology employs in vitro HLA-DR assembly assays to determine the on-rates for the MHC:peptide complex as one major determinant of the binding constant of individual peptides. The assay was performed by ProImmune (Oxford, UK). At a fixed time point, the amount of intact MHC:peptide complexes is measured and compared with the amount for a pass/fail control (relative weak binder). A strong, promiscuous HLA-DR binder is included as positive control. Values indicate amount of binding for the individual peptides and HLA-DR molecules relative to the pass/fail control.
In this assay, binding was compared to that of a pass/fail control binder, and to a positive control peptide for each HLA-DR antigen.

[2] = tested on: anti-survivin T-cell response; test: Phase I/II vaccination study, T cell response (IFN-g ELISPOT, +/-ICS); type: in vivo, human

in vitro binding to HLA-DR [1] | Sequence | Positive donors/donors tested [%] (CD8+ T cells) | Positive wells/wells tested [%] (CD8+ T cells) | patients with induction of an anti-survivin T-cell response upon vaccination ([2]; among the 16 reacting patients) | patients who reacted to the peptide (IFN-g ELISPOT, +/-ICS) ([2]; of the 19 patients, prostate carcinoma, s.c. vaccination)
– | AYLVYTDRL (listed as Homo sapiens) [PPAP2C-001] | 100% | 54% | – | –
– | FYISPVNKL (listed as Homo sapiens) [AVL9-001] | 100% | 50% | – | –
– | HYKPTPLYF (listed as Homo sapiens) [SMC4-001] | 75% | 9% | – | –
– | LYQILQGIVF (listed as Homo sapiens) [CDC2-001] | 88% | 28% | – | –
– | NYLLYVSNF (listed as Homo sapiens) [MST1R-001] | 50% | 14% | – | –
– | NYLPFIMEL (listed as Homo sapiens) [UCHL5-001] | 75% | 14% | – | –
– | RFLSGIINF (listed as Homo sapiens) [NUF2-002] | 50% | 4% | – | –
– | SYIDVLPEF (listed as Homo sapiens) [MET-006] | 63% | 22% | – | –
– | SYIIDPLNL (listed as Homo sapiens) [PROM1-001] | 83% | 26% | – | –
– | SYNPLWLRI (listed as Homo sapiens) [ASPM-002] | 63% | 31% | – | –
promiscuous binding | TLGEFLKLDRERAKN (listed as Homo sapiens) [IMA-BIR-002] | – | – | 12 | 16
– | TYGNLLDYL (listed as Homo sapiens) [ABL1-001] | 50% | 13% | – | –
– | VWSDVTPLTF (listed as Homo sapiens) [MMP11-001] | 33% | 11% | – | –
– | VYGIRLEHF (listed as Homo sapiens) [NUF2-001] | 100% | 25% | – | –
– | VYIEKNDKL (listed as Homo sapiens) [ERBB3-001] | 83% | 15% | – | –
– | YYNAAGFNKL (listed as Homo sapiens) [UQCRB-001] | 100% | 38% | – | –
